Measurements published in US20260234160A1, “NEW SUBSTITUTED QUINOLINE COMPOUNDS FOR COMBATITNG PHYTOPATHOGENIC FUNGI” (BASF SE, priority 2023, published 2026).

What was measured:
Botrytis cinerea = assay: Activity against the grey mold Botrytis cinerea in the microtiterplate test; type: cell-based; settings: 31 ppm, MTP, 405 nm, 7 days after inoculation
Description: The active compounds were formulated separately as a stock solution having a concentration of 10000 ppm in dimethyl sulfoxide.
The stock solutions were mixed according to the ratio, pipetted onto a micro titer plate (MTP) and diluted with water to the stated concentrations. A spore suspension of Botrytis cinerea in an aqueous biomalt or yeast-bactopeptone-sodium acetate solution was then added. The plates were placed in a water vapor-saturated chamber at a temperature of 18° C. Using an absorption photometer, the MTPs were measured at 405 nm 7 days after the inoculation.

Corynespora cassiicola = assay: Activity against Corynespora cassiicola in the microtiterplate test; type: cell-based; settings: 31 ppm, MTP
Description: The active compounds were formulated separately as a stock solution having a concentration of 10000 ppm in dimethyl sulfoxide. The stock solutions were mixed according to the ratio, pipetted onto a micro titer plate (MTP) and diluted with water to the stated concentrations. A spore suspension of the Corynespora cassiicola in an aqueous biomalt or yeast-bactopeptone-sodium acetate solution was then added.

Sclerotinia sclerotiorum = assay: Preventative fungicidal control of white mold on oilseed rape caused by Sclerotinia sclerotiorum (green house); type: in vivo; settings: 100 ppm, assessed after 14 days, untreated 100%
Description: The compound was dissolved in a mixture of acetone and/or dimethylsulfoxide and the wetting agent/emulsifier Wettol, which is based on ethoxylated alkylphenoles, in a ratio (volume) solvent-emulsifier of 99 to 1 to give a total volume of 5 ml. Subsequently, water was added to total volume of 100 ml.
This stock solution was then diluted with the described solvent-emulsifier-water mixture to the final concentration given in the table below.
Oilseed rapes were grown in pots to the 13 to 14 leaf stage. These plants were sprayed to runoff with previously described spray solution, containing the concentration of active ingredient or their mixture mentioned in the table below.
The plants could air-dry. The next day the applicated rape petals were fixed with 25 μl of 2.5% methylcellulose on leaf 1 and 2. 25 μl of a spore suspension of Sclerotinia sclerotiorum was pipetted on each fixed rape petal. After 14 days at 20° C. and a relative humidity of 60% the extent of fungal attack on the leaves was visually assessed as % diseased leaf area.

Structure (SMILES)	growth of the pathogen (Botrytis cinerea) [%]	growth of the pathogen (Corynespora cassiicola) [%]	growth of the pathogen (% diseased leaf area) (Sclerotinia sclerotiorum)
C[C@@H]1N=C(c2cnc3c(F)cccc3c2)c2cccc(F)c2OC1(C)C [Ex-3, (3S)-9-fluoro-5-(8-fluoro-3-quinolyl)-2,2,3-trimethyl-3H-1,4-benzoxazepine]	0		
C[C@@H]1N=C(c2cnc3ccccc3c2)c2cccc(F)c2OC1(C)C [Ex-4, (3S)-9-fluoro-2,2,3-trimethyl-5-(3-quinolyl)-3H-1,4-benzoxazepine]	0	1	
C[C@@H]1N=C(c2cnc3c(F)cccc3c2)c2ccccc2OC1(C)C [Ex-1, (S)-5-(8-fluoroquinolin-3-yl)-2,2,3-trimethyl-2,3-dihydrobenzo[f][1,4]oxazepane]	0		less than 1%
